# JP2005314435A, “循環器疾患治療剤および健康食品” (Individual, priority 2000, dated 2002)
# Columns and labels:
# Type in all cases: in vivo
# [1] = system: spontaneously stroke-developing rat [自然発症脳卒中ラット(SHR-SP)]; test: Example 2: blood pressure lowering, body weight and mortality in stroke-prone rats (1% saline drinking water); conditions: for blood pressure (systolic) / body weight: 1.8% in feed
# [2] = system: SHR-SP rat, neurological symptoms [SHR−SPに対する神経症状]; test: Example 2: delay of neurological symptom onset and life prolongation in SHR-SP (1% saline drinking water); conditions: for mean number of days from onset to death / mean number of days to death / mean number of days to onset of neurological symptoms: 1.8% in feed
# [3] = system: SHR-SP rat, neurological symptoms [SHR−SPに対する神経症状]; test: Example 3: delay of neurological symptom onset, life prolongation and brain microvessel protection in SHR-SP given 0.003% L-NAME
# [4] = system: spontaneously stroke-developing rat [自然発症脳卒中ラット (SHR−SP)]; test: Example 3: blood pressure lowering and body weight in SHR-SP given 0.003% L-NAME drinking water
# [5] = system: spontaneously hypertensive rat [自然発症高血圧ラット(SHR)]; test: Example 1: blood pressure lowering and body weight in spontaneously hypertensive rats (1% saline drinking water)
# [6] = system: WKY rat (Wistar-Kyoto rat) [WKYラット(Wistar-Kyoto rat)]; test: Example 1: blood pressure and body weight in normotensive WKY rats (1% saline drinking water)
# [7] = n = 7, listed as FA−Arg塩, L−アルギニン塩
# [8] = FA-Arg 1.8% in feed, 8-week observation
# [9] = FA-Arg 1.8% in feed, n = 7, 8-week observation
# [10] = FA-Arg 1.8% in feed, pre-value (week 0)
# [11] = FA 2.7% in feed, 8-week observation
# [12] = FA 2.7% in feed, n = 6, 8-week observation
# [13] = FA 1.8% in feed until week 6, then normal feed, week 9
# [14] = FA 1.8% in feed until week 6, then normal feed, week 12
# [15] = FA 1.8% in feed, pre-value (week 0)
# [16] = FA 2.7% in feed until week 6, then normal feed, week 9
# [17] = FA 2.7% in feed until week 6, then normal feed, week 12
# [18] = FA 2.7% in feed, pre-value (week 0)
# [19] = WKY, FA 2.7% in feed until week 6, then normal feed, week 9
# [20] = WKY, FA 2.7% in feed until week 6, then normal feed, week 12
# [21] = WKY, FA 2.7% in feed, pre-value (week 0)
structure (smiles),measurement,setting,value
"COc1cc(C=CC(=O)O)ccc1O [FA−Arg, フェルラ酸−L−アルギニン塩]",blood pressure (systolic),"[1]; pre-value (week 0), L−アルギニン塩",122.8 ±4.6 mmHg
same,body weight,"[1]; pre-value (week 0), L−アルギニン塩",103.2 ± 3.2 g
same,blood pressure (systolic),"[1]; week 2, L−アルギニン塩",155.2 ±4.6 mmHg
same,body weight,"[1]; week 2, L−アルギニン塩",156.7 ± 3.8 g
same,blood pressure (systolic),"[1]; week 4, L−アルギニン塩",196.1 ± 5.8 mmHg
same,body weight,"[1]; week 4, L−アルギニン塩",204.4 ± 4.5 g
same,body weight,"[1]; week 7, L−アルギニン塩",226.4 ± 10.9 g
same,mean number of days from onset to death,[2]; [7],8.2 ± 2.2 days
same,mean number of days to death,[2]; [7],73.9 ± 4.7 days
same,mean number of days to onset of neurological symptoms,[2]; [7],65.4 ± 4.8 days
same,animals that died / animals used,[3]; [8],2/7
same,animals with onset of neurological symptoms / animals used,[3]; [8],2/7
same,mean number of days to death,[3]; [9],55.0 ± 1.0 days
same,mean number of days to onset of neurological symptoms,[3]; [9],54.9 ± 1.1 days
same,deaths,"[4]; FA-Arg 1.8% in feed, at week 7",1 cases
same,deaths,"[4]; FA-Arg 1.8% in feed, at week 8",1 cases
same,blood pressure (systolic),[4]; [10],116.0 ±4.3 mmHg
same,body weight,[4]; [10],102.7 ± 2.9 g
same,blood pressure (systolic),"[4]; FA-Arg 1.8% in feed, week 2",146.4 ±5.0 mmHg
same,body weight,"[4]; FA-Arg 1.8% in feed, week 2",179.9 ± 4.0 g
same,blood pressure (systolic),"[4]; FA-Arg 1.8% in feed, week 4",183.6± 5.7 mmHg
same,body weight,"[4]; FA-Arg 1.8% in feed, week 4",225.7 ± 3.0 g
same,blood pressure (systolic),"[4]; FA-Arg 1.8% in feed, week 6",205.7±7.7 mmHg
same,body weight,"[4]; FA-Arg 1.8% in feed, week 6",244.3 ± 4.2 g
same,blood pressure (systolic),"[4]; FA-Arg 1.8% in feed, week 8",221.8± 7.1 mmHg
same,body weight,"[4]; FA-Arg 1.8% in feed, week 8",263.6 ± 6.9 g
"COc1cc(C=CC(=O)O)ccc1O [FA, フェルラ酸]",blood pressure (systolic),[1]; pre-value (week 0),124.5 ±5.5 mmHg
same,body weight,[1]; pre-value (week 0),94.0 ± 2.3 g
same,blood pressure (systolic),[1]; week 2,150.2 ±6.1 mmHg
same,body weight,[1]; week 2,148.8 ± 3.3 g
same,blood pressure (systolic),[1]; week 4,203.4 ±4.6 mmHg
same,body weight,[1]; week 4,198.2 ± 3.1 g
same,body weight,[1]; week 7,233.0 ± 3.8 g
same,blood pressure lowering effect (in words),"[1]; from week 2 on, versus control without test substance",有意な降圧効果が観察された
same,mean number of days from onset to death,[2]; n = 7,10.4 ± 0.6 days
same,mean number of days to death,[2]; n = 7,70.0 ± 1.8 days
same,mean number of days to onset of neurological symptoms,[2]; n = 7,59.6 ± 1.4 days
same,delay of neurological symptom onset and life prolongation (in words),[2]; versus control without test substance,明らかな神経症状発症遅延効果および延命効果を示している
same,preventive effect (in words),"[3]; 8-week observation, versus control",明らかな予防効果が見られた
same,animals that died / animals used,[3]; [11],0/6
same,animals with onset of neurological symptoms / animals used,[3]; [11],0/6
same,mean number of days to death,[3]; [12],56.0 ± 0.0 days
same,mean number of days to onset of neurological symptoms,[3]; [12],56.0 ± 0.0 days
same,mean number of days to onset of neurological symptoms or death (in words),"[3]; from start of administration, versus control",有意に延長していた
same,protection of brain microvessels (in words),"[3]; order FA group, FA-Arg salt group",FA投与群、FA−Arg塩投与群の順で脳内微細血管が保護されたことが示唆された
same,deaths,"[5]; FA 1.8% group, at week 9-10 (after change to normal feed at week 6)",1 cases
same,blood pressure (systolic),[5]; [13],225.6 ±6.1 mmHg
same,body weight,[5]; [13],293.8 ± 5.0 g
same,blood pressure (systolic),[5]; [14],233.6 ± 6.0 mmHg
same,body weight,[5]; [14],307.0 ± 6.7 g
same,blood pressure (systolic),[5]; [15],128.5 ±2.2 mmHg
same,body weight,[5]; [15],135.5 ± 1.8 g
same,blood pressure (systolic),"[5]; FA 1.8% in feed, week 6",201.1 ±6.2 mmHg
same,body weight,"[5]; FA 1.8% in feed, week 6",264.8 ± 4.1 g
same,blood pressure (systolic),[5]; [16],211.8 ±3.1 mmHg
same,body weight,[5]; [16],292.1 ± 3.0 g
same,blood pressure (systolic),[5]; [17],217.7 ± 4.7 mmHg
same,body weight,[5]; [17],309.4 ± 3.1 g
same,blood pressure (systolic),[5]; [18],135.4 ±2.7 mmHg
same,body weight,[5]; [18],136.8 ± 1.5 g
same,blood pressure (systolic),"[5]; FA 2.7% in feed, week 6",192.0 ±2.5 mmHg
same,body weight,"[5]; FA 2.7% in feed, week 6",239.5 ± 3.4 g
same,suppression of body weight (in words),[5]; FA groups,体重の有意な抑制がみられた
same,blood pressure lowering effect (in words),[5]; during 6 weeks of administration,用量依存的に有意な降圧作用を示した
same,blood pressure (systolic),[4]; [18],115.0 ±4.7 mmHg
same,body weight,[4]; [18],107.7 ± 1.9 g
same,blood pressure (systolic),"[4]; FA 2.7% in feed, week 2",141.4 ±3.1 mmHg
same,body weight,"[4]; FA 2.7% in feed, week 2",137.6 ± 3.0 g
same,blood pressure (systolic),"[4]; FA 2.7% in feed, week 4",185.1± 1.9 mmHg
same,body weight,"[4]; FA 2.7% in feed, week 4",175.9 ± 3.2 g
same,blood pressure (systolic),"[4]; FA 2.7% in feed, week 6",203.1±7.5 mmHg
same,body weight,"[4]; FA 2.7% in feed, week 6",195.1 ± 5.0 g
same,blood pressure (systolic),"[4]; FA 2.7% in feed, week 8",207.8± 6.0 mmHg
same,body weight,"[4]; FA 2.7% in feed, week 8",213.5 ± 7.4 g
same,blood pressure (systolic),[6]; [19],124.0 ±3.7 mmHg
same,body weight,[6]; [19],310.1 ± 7.3 g
same,blood pressure (systolic),[6]; [20],135.5 ± 2.8 mmHg
same,body weight,[6]; [20],349.2 ± 12.0 g
same,blood pressure (systolic),[6]; [21],99.5 ±3.1 mmHg
same,body weight,[6]; [21],122.2 ± 2.8 g
same,blood pressure (systolic),"[6]; WKY, FA 2.7% in feed, week 6",128.4 ±4.7 mmHg
same,body weight,"[6]; WKY, FA 2.7% in feed, week 6",263.2 ± 4.3 g
same,suppression of body weight (in words),"[6]; WKY, FA group",体重の有意な抑制がみられた
same,blood pressure lowering effect (in words),[6]; normotensive WKY rats,降圧作用を示さず
